Results published in US20260055152A1, “INTRACELLULAR CX3CL1 DOMAIN PEPTIDES AND USES THEREOF” (University of Connecticut, priority 2022, published 2026).

Test system: Akt
Assay: Akt inhibition assay in cultured N2A cells
Assay type: cell-based, mouse

NC1(c2ccc(-c3nc4ccn5c(=O)[nH]nc5c4cc3-c3ccccc3)cc2)CCC1 [MK2206]
phosphorylation of GSK3β and Foxo3 (N2A cells treated with 2 μM Tet34 or controls 24 hrs, then 2 μM MK2206 3hrs): diminish
Tet34 induced effects on Foxo3 phosphorylation (N2A cultures with Tet-CX3CL1-ICD peptides in presence of MK2206): abolished
